From patent US4053635A, “Substituted amides of 3-methyl-4-phenyl-3-butenoic acid, with a high hypolipemizing activity” (Istituto Biochimico Italiano di Loredana Lorenzini S.a.s., priority 1974, dated 1977)

Legend:
[1] = hypertriglyceridemia from ethanol (Table IV); format: in vivo, Sprague-Dawley male rat; conditions: 300 mg/kg daily, gastric intubation; ethanol twice a day, 4 days (controls 74.20±3.70, ethanol 135.80±13.30)
Experimental: | *Animal: Sprague-Dawley male rat of the average weight of 150 g. | Treatment: 0.31 ml. ethanol in 4 ml. water twice a day (in parenthesis, | the N. of animals) for 4 days. The substances have been provided by | gastric intubation at the daily dose of 300 mg/kg.

[2] = hypertriglyceridemia from Fructose (Table II); format: in vivo, Sprague-Dawley male rat; conditions: 200 mg/kg day by gastric probing, 5 days
Experimental: *Animal: Sprague-Dawley male rat, 150 g.; 6 rat sets. Treatment accordin
to E. A. Nikkila et al., Life sci.5,89,1966; substances administered at
the dose of 200 mg/kg day by gastric probing in two daily administrations

[3] = hyperlipemia from diet (Table III); format: in vivo, Sprague-Dawley male rat; conditions: 200 mg/kg/day per os; for Hepatic Cholesterol ± SE: hyperlipidic diet 4 weeks (diet alone 16.4±0.8); for Hepatic triglycerides ± SE: hyperlipidic diet 4 weeks (diet alone 56.4+3.8); for Triglyceridemia ± ES: hyperlipidic diet 4 weeks (diet alone 117.3±17.7); for Cholesterolemia ± SE: hyperlipidic diet 4 weeks (diet alone 129.9±9.3)
Text: °In parentheses, significativity towards the set treated only with
*Animal: Sprague-Dawley male rat of the initial weight of 120 g (in
parentheses the N. of animals).
Treatment: Hyperlipemia derived from hyperlipidic diet according to Nath N. et al., Nutrition J. 67, 289, 1959; the diet has been administered for 4 weeks. Each drug has been administered at the dose of 200/mg/kg/day per os for 4 weeks.

[4] = former works (U.S. Pat. No. 3,231,469; Canonica et al.); cited from earlier work
[5] = in vivo; conditions: rat, po, read-out: LD 50 per os in the rat
[6] = experiments of subchronic toxicity; format: in vivo; conditions: per os, 150 mg/kg/day and 300 mg/kg/day, 3 or 6 months
Experimental: mg/kg/day. In experiments of subchronic toxicity, the diethylamide of
the doses of 150 mg/kg/day and of 300 mg/kg/day for 3 or 6 months: the […]

[7] = toxicity in the test animal; conditions: in vivo
[8] = hyperlipemia from ethanol (Table V); format: in vivo, Sprague-Dawley male rat; conditions: gastric intubation; for cholesterolemia: ethyl alcohol 10% 1 week (controls 85±6, ethanol 90±4); for Triglyceridemia ±SE: ethyl alcohol 10% 1 week (controls 87±14, ethanol 238±44)
Experimental: Sprague-Dawley male rat of the average weight of 150 g. ethyl alcohol 10%
in water for 1 week (in parenthesis, the N. of animals). The substances
have been administered by gastric intubation at the dose of 200 and 300
mg/kg/day. In experiments of subchronic toxicity, the diethylamide of […]

[9] = 1st experiment (controls 41.7±1.7, fructose 62.9±5.5)
[10] = 2nd experiment (controls 45.6±4.7, fructose 94.0±12.1)
[11] = 3rd experiment (controls 77.1±12.1, fructose 155.2±19.2)
[12] = 4th experiment (controls 45.3±4.5, fructose 87.4±14.4)

| Compound | Triglyceridemia ±SE [1] [mg/100 ml] | Triglyceridemia ±SE [2, 9] [mg/100 ml] | Triglyceridemia ±SE [2, 10] [mg/100 ml] | Triglyceridemia ±SE [2, 11] [mg/100 ml] | Triglyceridemia ±SE [2, 12] [mg/100 ml] | Hepatic Cholesterol ± SE [3] [mg/g fresh tissue] | Hepatic triglycerides ± SE [3] [mg/g fresh tissue] | Triglyceridemia ± ES [3] [mg/100 ml] | Cholesterolemia ± SE [3] [mg/100 ml] | LD50 [5] [mg/kg] | further results |
| --- | --- | --- | --- | --- | --- | --- | --- | --- | --- | --- | --- |
| C/C(=C\c1ccccc1)CC(=O)O [I, 3-methyl-4-phenyl-3-butenoic acid] | 275.11±31.63 | 42.8±3.7 | 40.8±4.5 | 100.8±13.8 | 57.6±2.6 | 20.2±0.9 | 37.7±5.6 | 91.5±13.6 | 142.4±7.7 |  | hypolipemic characteristics [4]: interesting hypolipemic characteristics |
| C/C(=C\c1ccccc1)CC(=O)NCCO [IIIa, Monoethanolamide of 3-methyl-4-phenyl-3-butenoic acid] |  | 62.9±6.4 |  |  |  |  |  |  |  |  |  |
| C/C(=C\c1ccccc1)CC(=O)NC1CCCCC1 [IIIb, Monocyclohexylamide of 3-methyl-4-phenyl-3-butenoic acid] |  |  | 59.1±7.5 |  |  | 22.1±1.1 | 37.5±3.0 | 81.5±7.9 | 135.7±11.6 | 3000 |  |
| C/C(=C\c1ccccc1)CC(=O)N(CCO)CCO [IIIc, Diethanolamide of 3-methyl-4-phenyl-3-butenoic acid] |  |  | 69.6±3.9 |  |  |  |  |  |  | 1500 |  |
| CCN(CC)C(=O)C/C(C)=C/c1ccccc1 [IIId, Diethylamide of 3-methyl-4-phenyl-3-butenoic acid] | 90.0±14.83 |  |  | 87.1±13.4 |  | 19.4±0.7 | 25.9±3.8 | 77.4±7.5 | 124.9±4.6 |  | tolerability in subchronic toxicity [6]: fairly well tolerated; toxicity in the test animal [7]: low toxicity; cholesterolemia ([8]; 200 mg/kg/day): 77±3 mg/100 ml; Triglyceridemia ±SE ([8]; 200 mg/kg/day): 169±20 mg/100 ml; cholesterolemia ([8]; 300 mg/kg/day): 81±3 mg/100 ml; Triglyceridemia ±SE ([8]; 300 mg/kg/day): 117±20 mg/100 ml |
| C/C(=C\c1ccccc1)CC(=O)N1CCOCC1 [IIIe, Morpholide of 3-methyl-4-phenyl-3-butenoic acid] |  |  |  |  | 61.1±5.1 |  |  |  |  | 1000 |  |
| C/C(=C\c1ccccc1)CC(N)=O [II] |  |  |  |  |  |  |  |  |  |  | hypolipemic characteristics [4]: interesting hypolipemic characteristics |
| CCOC(=O)C(C)(C)Oc1ccc(Cl)cc1 [chlofibrate, ethyl ester of 2-(p-chlorophenoxy)-2-methyl propanoic acid, reference compound] | 121.50±12.26 | 42.2±5.4 | 48.9±2.4 | 62.9±7.2 | 59.1±3.6 | 18.5±1 | 30.3±2.5 | 60.0±4.3 | 138.8±10.7 |  | cholesterolemia ([8]; 200 mg/kg/day): 70±3 mg/100 ml; Triglyceridemia ±SE ([8]; 200 mg/kg/day): 183±29 mg/100 ml |
